pIC50: −log10 of the molar value.
How the values were obtained:
osteoclast precursors = experiment: Osteoclast tartrate-resistant acid phosphatase assay; assay type: cell-based; settings: Osteoclast, 7-14 days, RANKL and M-CSF
Procedure: Osteoclast Tartrate-Resistant Acid Phosphatase Assay
A serial dilution of test compound was dispensed into a 384-well black clear bottom plate (Nalge Nunc International, Rochester, N.Y.). Compound was diluted by the addition of DMEM media supplemented with 10% characterized fetal bovine serum (Invitrogen, Carlsbad, Calif.). Diluted compound was transferred to a 384-well black clear bottom plate. Two-thousand five hundred osteoclast precursors (Lonza, Walkersville, Md.) were added per well in growth media containing Receptor Activator of Nuclear Factor Kappa-beta ligand (RANKL) and M-CSF (R&D Systems, Minneapolis, Minn.). Plates were incubated for 7-14 days at 37 degrees Celsius, 5% CO2, and 95% humidity to allow differentiation of osteoclast precursors. At the end of the incubation period, 10 μL of supernatant from each well was transferred to a clear 384-well plate. Tartrate-resistant acid phosphatase activity in the supernatant samples was determined using an acid phosphatase assay kit (Sigma, St. Louis, Mo.). Absorbance was measured at 550 nm using a plate reader. Data was analyzed using Prism software (Graphpad, San Diego, Calif.) to calculate IC50 values.

M-NFS-60 cells = experiment: M-NFS-60 cell proliferation assay (resazurin); assay type: cell-based; settings: 67 h incubation
Procedure: M-NFS-60 cells (catalog #CRL-1838) were obtained from the American Type Culture Collection (ATCC, Manassas, Va.). Briefly, cells were grown in suspension in RPMI 1640 medium supplemented with 10% characterized fetal bovine serum (Invitrogen, Carlsbad, Calif.), 0.05 mM 2-mercaptoethanol, and 20 ng/mL mouse recombinant macrophage colony stimulating factor (M-CSF) at 37° C., 5% CO2, and 95% humidity. Cells were allowed to expand until reaching saturation at which point they were subcultured or harvested for assay use.
M-NFS-60 Cell Proliferation Assay
A serial dilution of test compound was dispensed into a 384-well black clear bottom plate (Corning, Corning, N.Y.). Two thousand five hundred cells were added per well in 50 μL complete growth medium. Plates were incubated for 67 h at 37° C., 5% CO2, and 95% humidity. At the end of the incubation period 10 μL of a 440 μM solution of resazurin (Sigma, St. Louis, Mo.) in PBS was added to each well and incubated for an additional 5 h at 37° C., 5% CO2, and 95% humidity. Plates were read on a Synergy2 reader (Biotek, Winooski, Vt.) using an excitation of 540 nm and an emission of 600 nm. IC50 values were calculated from a series of percent inhibition values determined at a range of inhibitor concentrations using software routines as implemented in the GraphPad Prism software package.

[1] = molecular target: unphosphorylated c-FMS kinase (uFMS, Seq. ID no. 1) (Homo sapiens (Human), UniProt P07333); experiment: uFMS kinase assay (ADP production coupled to pyruvate kinase/lactate dehydrogenase); assay type: biochemical; settings: enzymatic assay, ATP 500 μM; read-out: uFMS
Procedure: uFMS kinase (Seq. ID No. 1) Assay
In this assay, the oxidation of NADH (thus the decrease at A340 nm) was continuously monitored spectrophometrically. The reaction mixture (100 μL) contained FMS (purchased from Millipore) (10 nM), polyE4Y (1 mg/mL), MgCl2 (10 mM), pyruvate kinase (4 units), lactate dehydrogenase (0.7 units), phosphoenol pyruvate (1 mM), NADH (0.28 mM) and ATP (500 μM) in 90 mM Tris buffer containing 0.2% octyl-glucoside and 1% DMSO, pH 7.5. The inhibition reaction was started by mixing serial diluted test compound with the above reaction mixture. The absorption at 340 nm was monitored continuously for 4 hours at 30° C. on Synergy 2 plate reader. The reaction rate was calculated using the 3 to 4 h time frame. Percent inhibition was obtained by comparison of reaction rate with that of a control (i.e., in the absence of test compound). IC50 values were calculated from a series of percent inhibition values determined at a range of inhibitor concentrations using software routines as implemented in the GraphPad Prism software package.
uFMS Kinase Sequence (Y538-End) Used for Screening (Seq. ID No. 1)

[2] = molecular target: unphosphorylated c-KIT kinase (uKIT, Seq. ID no. 2) (Homo sapiens (Human), UniProt P10721); experiment: uKit kinase assay (coupled pyruvate kinase/lactate dehydrogenase); assay type: biochemical; settings: enzymatic assay, ATP 2000 μM
Procedure: uKit Kinase (Seq. ID No. 2) Assay
Activity of unphosphorylated c-KIT kinase (uKIT, Seq. ID no. 2) was determined by following the production of ADP from the KIT kinase reaction with ATP and poly E4Y as substrates through coupling with the pyruvate kinase/lactate dehydrogenase system (e.g., Schindler et al. Science (2000) 289: 1938-1942). In this assay, the oxidation of NADH (thus the decrease at A340 nm) was continuously monitored spectrophometrically. The reaction mixture (100 μl) contained unphosphorylated KIT (12 nM), polyE4Y (1 mg/mL), MgCl2 (10 mM), pyruvate kinase (4 units), lactate dehydrogenase (0.7 units), phosphoenol pyruvate (1 mM), and NADH (0.28 mM) and ATP (2000 μM) in 90 mM Tris buffer containing 0.2% octyl-glucoside and 1% DMSO, pH 7.5. The inhibition reaction was started by mixing serial diluted test compound with the above reaction mixture. The absorption at 340 nm was monitored continuously for 4 hours at 30° C. on Synergy 2 plate reader (BioTech). Reaction rates around 3 to 4 h time frame were used to calculate % inhibitions, from which IC50 values were generated.
uKit with N-Terminal GST Fusion Used for Screening (Seq ID No. 2)

Sequence of unphosphorylated c-FMS kinase (uFMS, Seq. ID no. 1) (P07333 538-972): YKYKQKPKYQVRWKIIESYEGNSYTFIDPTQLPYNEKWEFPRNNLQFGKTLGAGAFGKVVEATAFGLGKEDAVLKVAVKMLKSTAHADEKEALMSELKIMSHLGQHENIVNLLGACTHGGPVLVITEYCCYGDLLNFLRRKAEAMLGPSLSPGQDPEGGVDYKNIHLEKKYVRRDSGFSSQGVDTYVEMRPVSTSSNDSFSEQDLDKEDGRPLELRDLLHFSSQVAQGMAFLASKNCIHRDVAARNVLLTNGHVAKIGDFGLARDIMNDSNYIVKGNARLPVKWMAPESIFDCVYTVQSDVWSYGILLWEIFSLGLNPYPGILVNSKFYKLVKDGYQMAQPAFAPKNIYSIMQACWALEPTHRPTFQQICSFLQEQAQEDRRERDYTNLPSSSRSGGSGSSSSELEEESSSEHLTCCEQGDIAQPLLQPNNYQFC
Sequence of unphosphorylated c-KIT kinase (uKIT, Seq. ID no. 2) (P10721 other isoform, or with tags, fused parts or gaps): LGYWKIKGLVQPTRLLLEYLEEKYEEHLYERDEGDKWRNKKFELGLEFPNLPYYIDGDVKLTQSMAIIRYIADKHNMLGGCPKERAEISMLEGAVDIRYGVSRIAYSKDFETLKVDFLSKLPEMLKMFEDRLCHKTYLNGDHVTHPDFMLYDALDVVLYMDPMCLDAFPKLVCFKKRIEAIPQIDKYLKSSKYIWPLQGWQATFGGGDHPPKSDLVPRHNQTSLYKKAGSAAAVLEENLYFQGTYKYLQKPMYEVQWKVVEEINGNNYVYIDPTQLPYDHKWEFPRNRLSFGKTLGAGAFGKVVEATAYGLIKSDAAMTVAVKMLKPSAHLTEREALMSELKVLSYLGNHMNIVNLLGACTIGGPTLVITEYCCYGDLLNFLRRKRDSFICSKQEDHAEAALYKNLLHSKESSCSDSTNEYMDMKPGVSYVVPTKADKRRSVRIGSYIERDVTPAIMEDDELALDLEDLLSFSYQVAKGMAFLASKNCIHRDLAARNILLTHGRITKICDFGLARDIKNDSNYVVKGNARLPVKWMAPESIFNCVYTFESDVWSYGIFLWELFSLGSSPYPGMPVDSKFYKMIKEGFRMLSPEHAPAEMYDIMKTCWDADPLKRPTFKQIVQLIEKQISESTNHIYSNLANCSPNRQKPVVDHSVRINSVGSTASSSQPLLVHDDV

Row | Structure (SMILES) | pIC50 (osteoclast precursors) | pIC50 (M-NFS-60 cells) | pIC50 [1] | pIC50 [2]
1 | Cc1cc(-c2cc(Oc3ccc(NC(=O)N4CCN(C5CCOCC5)C4=O)nc3C)ccn2)ccn1 [Example 87, N-(6-methyl-5-((2′-methyl-[2,4′-bipyridin]-4-yl)oxy)pyridin-2-yl)-2-oxo-3-(tetrahydro-2H-pyran-4-yl)imidazolidine-1-carboxamide] | 7.00 to 8.00 | 7.00 to 8.00 | > 8.00 | 7.00 to 8.00
2 | COCCN1CCN(C(=O)Nc2ccc(Oc3ccnc(-c4cnc(C)s4)c3)cn2)C1=O [Example 62, 3-(2-methoxyethyl)-N-(5-((2-(2-methylthiazol-5-yl)pyridin-4-yl)oxy)pyridin-2-yl)-2-oxoimidazolidine-1-carboxamide] | 6.00 to 7.00 | 6.00 to 7.00 | 6.00 to 7.00 | 6.00 to 7.00
3 | COCCN1CCN(C(=O)Nc2ccc(Oc3ccnc(-c4cn(C)cn4)c3)c(C)n2)C1=O [Example 81, 3-(2-methoxyethyl)-N-(6-methyl-5-((2-(1-methyl-1H-imidazol-4-yl)pyridin-4-yl)oxy)pyridin-2-yl)-2-oxoimidazolidine-1-carboxamide] | 6.00 to 7.00 | 6.00 to 7.00 | 7.00 to 8.00 | < 6.00
4 | Cc1ncc(-c2cc(Oc3ccc(NC(=O)N4CCN(CC(F)(F)F)C4=O)nc3C)ccn2)s1 [Example 74, N-(6-methyl-5-((2-(2-methylthiazol-5-yl)pyridin-4-yl)oxy)pyridin-2-yl)-2-oxo-3-(2,2,2-trifluoroethyl)imidazolidine-1-carboxamide] | 7.00 to 8.00 | 6.00 to 7.00 | 7.00 to 8.00 | 6.00 to 7.00
5 | Cc1ncc(-c2cc(Oc3ccc(NC(=O)N4CCN(C5CCOCC5)C4=O)nc3C)ccn2)s1 [Example 66, N-(6-methyl-5-((2-(2-methylthiazol-5-yl)pyridin-4-yl)oxy)pyridin-2-yl)-2-oxo-3-(tetrahydro-2H-pyran-4-yl)imidazolidine-1-carboxamide] | 6.00 to 7.00 | 6.00 to 7.00 | 7.00 to 8.00 | 6.00 to 7.00
6 | CCc1nc(NC(=O)N2CCN(C3CCOCC3)C2=O)ccc1Oc1ccnc(-c2ccc(C)nc2)c1 [Example 63, N-(6-ethyl-5-((6′-methyl-[2,3′-bipyridin]-4-yl)oxy)pyridin-2-yl)-2-oxo-3-(tetrahydro-2H-pyran-4-yl)imidazolidine-1-carboxamide] | < 6.00 | < 6.00 | 6.00 to 7.00 | < 6.00
7 | CCN1CCN(C(=O)Nc2ccc(Oc3ccnc(-n4cnc(C)c4)c3)cn2)C1=O [Example 79, 3-ethyl-N-(5-((2-(4-methyl-1H-imidazol-1-yl)pyridin-4-yl)oxy)pyridin-2-yl)-2-oxoimidazolidine-1-carboxamide] | 6.00 to 7.00 | < 6.00 | 6.00 to 7.00 | 6.00 to 7.00
8 | Cc1ncc(-c2cc(Oc3ccc(NC(=O)N4CCN(C5CC5)C4=O)nc3C)ccn2)s1 [Example 65, 3-cyclopropyl-N-(6-methyl-5-((2-(2-methylthiazol-5-yl)pyridin-4-yl)oxy)pyridin-2-yl)-2-oxoimidazolidine-1-carboxamide] | 7.00 to 8.00 | 6.00 to 7.00 | 7.00 to 8.00 | 6.00 to 7.00
9 | Cc1ncc(-c2cc(Oc3ccc(NC(=O)N4CCN(C)C4=O)nc3C)ccn2)s1 [Example 73, 3-methyl-N-(6-methyl-5-((2-(2-methylthiazol-5-yl)pyridin-4-yl)oxy)pyridin-2-yl)-2-oxoimidazolidine-1-carboxamide] | 6.00 to 7.00 | < 6.00 | 6.00 to 7.00 | < 6.00
10 | Cc1cn(-c2cc(Oc3ccc(NC(=O)N4CCN(C5CCOCC5)C4=O)nc3)ccn2)cn1 [Example 77, N-(5-((2-(4-methyl-11H-imidazol-1-yl)pyridin-4-yl)oxy)pyridin-2-yl)-2-oxo-3-(tetrahydro-2H-pyran-4-yl)imidazolidine-1-carboxamide] | 6.00 to 7.00 | 6.00 to 7.00 | 7.00 to 8.00 | 7.00 to 8.00
11 | CCc1nc(NC(=O)N2CCN(C3CCCC3)C2=O)ccc1Oc1ccnc(-c2cnc(C)s2)c1 [Example 78, 3-cyclopentyl-N-(6-ethyl-5-((2-(2-methylthiazol-5-yl)pyridin-4-yl)oxy)pyridin-2-yl)-2-oxoimidazolidine-1-carboxamide] | 6.00 to 7.00 | < 6.00 | 7.00 to 8.00 | < 6.00
12 | Cc1ncc(-c2cc(Oc3ccc(NC(=O)N4CCN(C5CCCC5)C4=O)nc3C)ccn2)s1 [Example 75, 3-cyclopentyl-N-(6-methyl-5-((2-(2-methylthiazol-5-yl)pyridin-4-yl)oxy)pyridin-2-yl)-2-oxoimidazolidine-1-carboxamide] | 7.00 to 8.00 | 7.00 to 8.00 | > 8.00 | 6.00 to 7.00
13 | Cc1cn(-c2cc(Oc3ccc(NC(=O)N4CCN(CC(F)(F)F)C4=O)nc3)ccn2)cn1 [Example 76, N-(5-((2-(4-methyl-1H-imidazol-1-yl)pyridin-4-yl)oxy)pyridin-2-yl)-2-oxo-3-(2,2,2-trifluoroethyl)imidazolidine-1-carboxamide] | 6.00 to 7.00 | 6.00 to 7.00 | 7.00 to 8.00 | 6.00 to 7.00

Source: patent US9133183B2, “Imidazolidinones and analogs exhibiting anti-cancer and anti-proliferative activities” (Deciphera Pharmaceuticals, LLC, priority 2013, dated 2015)
